From PMC6017976, “Enzyme Kinetics and Molecular Docking Studies on Cytochrome 2B6, 2C19, 2E1, and 3A4 Activities by Sauchinone” (Molecules : A Journal of Synthetic Chemistry and Natural …, 2018)
Several values for one entry are separate records, joined by “and”; a condition that tells them apart may be missing. Equal entries are not always repeated.

Columns and labels:
CYP2B6 [1] = target: T1, CYP2B6 (Homo sapiens, UniProt P20813); test: Reversible inhibition (RI) of CYP2B6 activity in HLMs (cocktail probe assay); assay type: in vitro ADME; settings: bupropion hydroxylation, 50 μM bupropion, 30 min incubation
T1 construct: pooled human liver microsomes from a mixed pool of 50 donors; tissue BD Gentest Co. 452156; host or cells: human liver microsomes, pool of 50 donors
T1 sequence (P20813 1-491): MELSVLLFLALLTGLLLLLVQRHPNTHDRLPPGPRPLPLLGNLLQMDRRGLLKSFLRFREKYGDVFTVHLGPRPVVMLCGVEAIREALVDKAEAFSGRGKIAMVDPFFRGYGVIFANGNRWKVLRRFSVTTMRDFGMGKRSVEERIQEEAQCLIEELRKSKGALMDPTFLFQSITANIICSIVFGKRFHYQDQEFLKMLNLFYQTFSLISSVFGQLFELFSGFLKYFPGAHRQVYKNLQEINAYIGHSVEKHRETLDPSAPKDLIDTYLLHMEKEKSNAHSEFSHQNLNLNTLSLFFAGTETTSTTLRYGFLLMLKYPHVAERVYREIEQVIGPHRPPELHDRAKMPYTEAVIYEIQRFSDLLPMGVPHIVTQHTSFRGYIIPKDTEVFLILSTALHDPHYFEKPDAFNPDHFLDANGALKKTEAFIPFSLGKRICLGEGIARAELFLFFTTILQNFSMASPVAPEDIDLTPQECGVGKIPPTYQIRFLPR

CYP2C9 [2] = target: T2, CYP2C9 (Homo sapiens, UniProt P11712); test: Reversible inhibition (RI) of CYP2C9 activity in HLMs (cocktail probe assay); assay type: in vitro ADME; settings: 100 μM tolbutamide, 30 min incubation
T2 construct: pooled human liver microsomes from a mixed pool of 50 donors; tissue BD Gentest Co. 452156; host or cells: human liver microsomes, pool of 50 donors
T2 sequence (P11712 whole entry): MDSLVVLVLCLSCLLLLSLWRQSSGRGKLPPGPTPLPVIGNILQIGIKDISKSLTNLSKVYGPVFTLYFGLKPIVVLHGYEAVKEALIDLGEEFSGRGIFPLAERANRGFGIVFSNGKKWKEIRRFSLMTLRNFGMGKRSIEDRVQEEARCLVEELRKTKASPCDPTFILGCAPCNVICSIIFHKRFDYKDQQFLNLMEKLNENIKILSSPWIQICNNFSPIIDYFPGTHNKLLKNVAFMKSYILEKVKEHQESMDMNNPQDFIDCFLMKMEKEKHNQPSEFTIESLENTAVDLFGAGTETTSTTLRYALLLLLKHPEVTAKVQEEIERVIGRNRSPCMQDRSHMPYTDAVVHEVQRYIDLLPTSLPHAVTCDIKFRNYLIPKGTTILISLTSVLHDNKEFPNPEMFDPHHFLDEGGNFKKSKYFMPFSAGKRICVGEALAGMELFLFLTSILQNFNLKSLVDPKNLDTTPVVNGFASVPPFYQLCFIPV

CYP2C19 [3] = target: T3, CYP2C19 (Homo sapiens, UniProt P33261); test: Reversible inhibition (RI) of CYP2C19 activity in HLMs (cocktail probe assay); assay type: in vitro ADME; settings: S-mephenytoin hydroxylation, 100 μM S-mephenytoin, 30 min incubation
T3 construct: pooled human liver microsomes from a mixed pool of 50 donors; tissue BD Gentest Co. 452156; host or cells: human liver microsomes, pool of 50 donors
T3 sequence (P33261 whole entry): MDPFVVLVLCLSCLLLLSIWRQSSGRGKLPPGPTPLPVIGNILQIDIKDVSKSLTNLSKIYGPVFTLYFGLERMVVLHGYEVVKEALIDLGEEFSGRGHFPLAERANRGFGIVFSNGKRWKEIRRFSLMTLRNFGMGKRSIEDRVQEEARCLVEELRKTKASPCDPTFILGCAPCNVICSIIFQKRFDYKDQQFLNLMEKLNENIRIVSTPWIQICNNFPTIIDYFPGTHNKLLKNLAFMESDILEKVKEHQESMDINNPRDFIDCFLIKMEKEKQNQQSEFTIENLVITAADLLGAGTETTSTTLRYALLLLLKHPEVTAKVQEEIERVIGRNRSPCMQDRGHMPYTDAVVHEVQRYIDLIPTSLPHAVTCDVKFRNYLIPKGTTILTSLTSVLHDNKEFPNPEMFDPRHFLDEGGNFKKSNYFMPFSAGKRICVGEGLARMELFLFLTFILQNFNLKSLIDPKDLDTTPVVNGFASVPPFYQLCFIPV

CYP2D6 [4] = target: T4, CYP2D6 (Homo sapiens, UniProt P10635); test: Reversible inhibition (RI) of CYP2D6 activity in HLMs (cocktail probe assay); assay type: in vitro ADME; settings: 5 μM dextromethorphan, 30 min incubation
T4 construct: pooled human liver microsomes from a mixed pool of 50 donors; tissue BD Gentest Co. 452156; host or cells: human liver microsomes, pool of 50 donors
T4 sequence (P10635 whole entry): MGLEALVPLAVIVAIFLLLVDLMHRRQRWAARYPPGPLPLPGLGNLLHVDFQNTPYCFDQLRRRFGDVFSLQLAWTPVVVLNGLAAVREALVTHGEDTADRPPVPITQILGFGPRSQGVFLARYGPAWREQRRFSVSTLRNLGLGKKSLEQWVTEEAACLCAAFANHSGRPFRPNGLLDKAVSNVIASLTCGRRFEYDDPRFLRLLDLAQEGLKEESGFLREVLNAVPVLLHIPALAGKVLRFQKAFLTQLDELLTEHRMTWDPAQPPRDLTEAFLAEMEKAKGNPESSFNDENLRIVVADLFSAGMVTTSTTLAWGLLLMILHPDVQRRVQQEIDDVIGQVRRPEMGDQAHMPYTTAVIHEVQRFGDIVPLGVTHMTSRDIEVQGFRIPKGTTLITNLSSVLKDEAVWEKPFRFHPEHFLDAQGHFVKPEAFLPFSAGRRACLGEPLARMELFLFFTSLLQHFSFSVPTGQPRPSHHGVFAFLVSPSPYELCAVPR

CYP2E1 [5] = target: T5, CYP2E1 (Homo sapiens, UniProt P05181); test: Reversible inhibition (RI) of CYP2E1 activity in HLMs (cocktail probe assay); assay type: in vitro ADME; settings: chlorzoxazone hydroxylation, 50 μM chlorzoxazone, 30 min incubation
T5 construct: pooled human liver microsomes from a mixed pool of 50 donors; tissue BD Gentest Co. 452156; host or cells: human liver microsomes, pool of 50 donors
T5 sequence (P05181 whole entry): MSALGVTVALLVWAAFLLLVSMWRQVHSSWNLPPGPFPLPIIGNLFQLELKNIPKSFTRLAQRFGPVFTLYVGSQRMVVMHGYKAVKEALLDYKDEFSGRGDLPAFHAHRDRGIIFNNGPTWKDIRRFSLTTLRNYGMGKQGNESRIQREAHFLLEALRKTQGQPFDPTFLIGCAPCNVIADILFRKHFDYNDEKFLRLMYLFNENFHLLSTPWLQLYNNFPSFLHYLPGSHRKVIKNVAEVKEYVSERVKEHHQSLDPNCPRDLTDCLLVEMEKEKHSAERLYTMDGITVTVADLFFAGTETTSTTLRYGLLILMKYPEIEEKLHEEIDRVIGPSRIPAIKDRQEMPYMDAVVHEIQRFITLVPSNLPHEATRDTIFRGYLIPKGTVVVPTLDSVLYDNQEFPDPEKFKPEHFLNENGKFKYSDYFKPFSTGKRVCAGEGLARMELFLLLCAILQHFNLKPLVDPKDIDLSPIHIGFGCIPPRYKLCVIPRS

CYP3A4 [6] = target: T6, CYP3A4 (Homo sapiens, UniProt P08684); test: Reversible inhibition (RI) of CYP3A4 activity in HLMs (cocktail probe assay); assay type: in vitro ADME; settings: testosterone hydroxylation, 50 μM testosterone, 30 min incubation
T6 construct: pooled human liver microsomes from a mixed pool of 50 donors; tissue BD Gentest Co. 452156; host or cells: human liver microsomes, pool of 50 donors
T6 sequence (P08684 whole entry): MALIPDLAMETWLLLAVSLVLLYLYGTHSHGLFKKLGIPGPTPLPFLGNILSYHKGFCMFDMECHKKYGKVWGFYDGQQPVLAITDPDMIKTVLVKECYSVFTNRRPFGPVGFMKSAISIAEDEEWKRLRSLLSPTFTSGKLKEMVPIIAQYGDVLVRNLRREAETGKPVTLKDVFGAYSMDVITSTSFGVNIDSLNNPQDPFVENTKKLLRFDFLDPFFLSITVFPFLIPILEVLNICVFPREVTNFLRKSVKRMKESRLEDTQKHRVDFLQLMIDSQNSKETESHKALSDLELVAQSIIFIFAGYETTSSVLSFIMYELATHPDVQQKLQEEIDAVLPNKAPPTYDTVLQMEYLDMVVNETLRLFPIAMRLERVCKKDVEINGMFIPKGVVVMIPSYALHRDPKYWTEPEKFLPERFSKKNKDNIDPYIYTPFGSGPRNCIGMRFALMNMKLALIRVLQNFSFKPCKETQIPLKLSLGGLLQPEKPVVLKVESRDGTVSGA

CYP2B6 [7] = target: T1, CYP2B6; test: Enzyme kinetic assay (Dixon plot, Ki) for CYP2B6 in HLMs; assay type: in vitro ADME
Method: (§1) Based on IC50 values, the Kis of sauchinone for CYP2B6, 2C19, 2E1, and 3A4 were determined. Different concentrations (20, 50, and 200 μM) of sauchinone were used. Other procedures were similar to those mentioned above regarding the reversible inhibitory effects of sauchinone. The inhibitory characteristics of sauchinone were initially estimated by nonlinear least squares regression analysis. Its Ki values were determined by Dixon plots.

CYP2C19 [8] = target: T3, CYP2C19; test: Enzyme kinetic assay (Dixon plot, Ki) for CYP2C19 in HLMs; assay type: in vitro ADME
Method: as §1

CYP2E1 [9] = target: T5, CYP2E1; test: Enzyme kinetic assay (Dixon plot, Ki) for CYP2E1 in HLMs; assay type: in vitro ADME
Method: as §1

CYP3A4 [10] = target: T6, CYP3A4; test: Enzyme kinetic assay (Dixon plot, Ki) for CYP3A4 in HLMs; assay type: in vitro ADME
Method: as §1

CYP2B6 [11] = target: T1, CYP2B6; test: Time-dependent inhibition (TDI) IC50 shift assay on CYP2B6 in HLMs; assay type: in vitro ADME; settings: for IC50: HLMs, 10 min incubation
CYP2C9 [12] = target: T2, CYP2C9; test: Time-dependent inhibition (TDI) IC50 shift assay on CYP2C9 in HLMs; assay type: in vitro ADME; settings: 10 min incubation
CYP2C19 [13] = target: T3, CYP2C19; test: Time-dependent inhibition (TDI) IC50 shift assay on CYP2C19 in HLMs; assay type: in vitro ADME; settings: for IC50: HLMs, 10 min incubation
CYP2D6 [14] = target: T4, CYP2D6; test: Time-dependent inhibition (TDI) IC50 shift assay on CYP2D6 in HLMs; assay type: in vitro ADME
CYP2E1 [15] = target: T5, CYP2E1; test: Time-dependent inhibition (TDI) IC50 shift assay on CYP2E1 in HLMs; assay type: in vitro ADME; settings: for IC50: HLMs, 10 min incubation
CYP3A4 [16] = target: T6, CYP3A4; test: Time-dependent inhibition (TDI) IC50 shift assay on CYP3A4 in HLMs; assay type: in vitro ADME; settings: for IC50: HLMs, 10 min incubation
CYP1A2 [17] = target: T7, CYP1A2 (Homo sapiens, UniProt P05177); test: Time-dependent inhibition (TDI) IC50 shift assay on CYP1A2 in HLMs; assay type: in vitro ADME; design: […]; tissue BD Gentest Co. 452156; settings: 10 min incubation
T7 sequence (P05177 1-516): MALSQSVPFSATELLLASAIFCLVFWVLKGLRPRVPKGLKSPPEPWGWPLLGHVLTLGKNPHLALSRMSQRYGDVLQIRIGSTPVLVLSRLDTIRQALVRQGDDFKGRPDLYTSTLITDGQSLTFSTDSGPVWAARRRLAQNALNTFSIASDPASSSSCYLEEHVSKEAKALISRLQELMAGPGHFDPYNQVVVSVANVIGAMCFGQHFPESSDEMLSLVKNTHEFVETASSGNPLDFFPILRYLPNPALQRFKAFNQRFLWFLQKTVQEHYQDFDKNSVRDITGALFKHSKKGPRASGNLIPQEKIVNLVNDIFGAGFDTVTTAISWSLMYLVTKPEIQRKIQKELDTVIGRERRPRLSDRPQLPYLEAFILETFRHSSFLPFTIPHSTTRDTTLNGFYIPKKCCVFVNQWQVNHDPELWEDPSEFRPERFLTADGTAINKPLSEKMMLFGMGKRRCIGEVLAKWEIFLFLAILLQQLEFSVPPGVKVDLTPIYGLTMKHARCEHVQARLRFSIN

CYP1A2 [18] = target: T7, CYP1A2; test: Reversible inhibition (RI) of CYP1A2 activity in HLMs (cocktail probe assay)
CYP2A6 [19] = target: T8, CYP2A6 (Homo sapiens, UniProt P11509); test: Reversible inhibition (RI) of CYP2A6 activity in HLMs (cocktail probe assay)
T8 sequence (P11509 1-494): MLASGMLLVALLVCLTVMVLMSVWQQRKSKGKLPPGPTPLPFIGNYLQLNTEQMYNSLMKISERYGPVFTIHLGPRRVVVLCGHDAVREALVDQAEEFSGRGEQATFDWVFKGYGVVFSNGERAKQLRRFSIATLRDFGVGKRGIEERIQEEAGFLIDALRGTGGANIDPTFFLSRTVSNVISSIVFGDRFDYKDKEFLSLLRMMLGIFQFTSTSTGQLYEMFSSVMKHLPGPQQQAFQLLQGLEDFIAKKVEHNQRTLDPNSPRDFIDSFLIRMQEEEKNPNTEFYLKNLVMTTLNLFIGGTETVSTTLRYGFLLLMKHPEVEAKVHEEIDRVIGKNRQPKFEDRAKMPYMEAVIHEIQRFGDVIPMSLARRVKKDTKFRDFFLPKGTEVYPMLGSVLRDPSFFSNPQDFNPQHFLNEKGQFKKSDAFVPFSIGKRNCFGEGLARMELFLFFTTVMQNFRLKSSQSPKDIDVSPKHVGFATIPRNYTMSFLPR

CYP2A6 [20] = target: T8, CYP2A6; test: Time-dependent inhibition (TDI) IC50 shift assay on CYP2A6 in HLMs; assay type: in vitro ADME; design: pooled human liver microsomes from a mixed pool of 50 donors; tissue BD Gentest Co. 452156; host or cells: human liver microsomes, pool of 50 donors; settings: 10 min incubation

- IC50 (CYP2B6 [1]): 0.458 ± 0.0932 µM
- IC50 (CYP2C9 [2]): > 300 µM
- IC50 (CYP2C19 [3]): 3.6 ± 2.54 µM
- IC50 (CYP2D6 [4]): > 300 µM
- IC50 (CYP2E1 [5]): 35.4 µM and 35.8 µM
- IC50 (CYP3A4 [6]): 0.207 ± 0.193 µM
- Ki (CYP2B6 [7]; sauchinone 20, 50, 200 μM, read-out: Apparent inhibition constant (Ki) for CYP2B6): 14.3 µM
- Type of reversible inhibition of CYP2B6 (Dixon plot model) (CYP2B6 [7]; visual inspection): noncompetitive
- Ki (CYP2C19 [8]; sauchinone 20, 50, 200 μM, read-out: Apparent inhibition constant (Ki) for CYP2C19): 16.8 µM
- Type of reversible inhibition of CYP2C19 (Dixon plot model) (CYP2C19 [8]; visual inspection): noncompetitive
- Ki (CYP2E1 [9]; sauchinone 20, 50, 200 μM, read-out: Apparent inhibition constant (Ki) for CYP2E1): 41.7 µM
- Type of reversible inhibition of CYP2E1 (Dixon plot model) (CYP2E1 [9]; visual inspection): noncompetitive
- Ki (CYP3A4 [10]; sauchinone 20, 50, 200 μM, read-out: Apparent inhibition constant (Ki) for CYP3A4): 6.84 µM
- Type of reversible inhibition of CYP3A4 (Dixon plot model) (CYP3A4 [10]; visual inspection): noncompetitive
- IC50 (CYP2B6 [11]; 0 min pre-incubation with NADPH, read-out: IC50 on CYP2B6, 0 min inactivation incubation (TDI)): 36.4 ± 27 µM
- IC50 (CYP2B6 [11]; IC50 on CYP2B6, 30 min inactivation incubation (TDI), 30 min pre-incubation with NADPH): 3.93 ± 5.72 µM
- IC50 shift at 10 min (CYP2B6 [11]; human, human liver microsomes, pH 7.4, probe bupropion (substrate cocktail set)): 9.28
- IC50 (CYP2C9 [12]; 0 min pre-incubation with NADPH, read-out: IC50 on CYP2C9, 0 min inactivation incubation (TDI)): > 300 µM
- IC50 (CYP2C9 [12]; IC50 on CYP2C9, 30 min inactivation incubation (TDI), 30 min pre-incubation with NADPH): > 300 µM
- IC50 (CYP2C19 [13]; 0 min pre-incubation with NADPH, read-out: IC50 on CYP2C19, 0 min inactivation incubation (TDI)): 28.5 ± 0.267 µM
- IC50 (CYP2C19 [13]; IC50 on CYP2C19, 30 min inactivation incubation (TDI), 30 min pre-incubation with NADPH): 19.4 ± 2.92 µM
- IC50 shift (CYP2C19 [13]; human, human liver microsomes, pH 7.4): 1.47
- IC50 (CYP2D6 [14]; 0 min pre-incubation with NADPH, 10 min incubation, read-out: IC50 on CYP2D6, 0 min inactivation incubation (TDI)): > 300 µM
- IC50 (CYP2D6 [14]; read-out: IC50 on CYP2D6, 30 min inactivation incubation (TDI), 30 min pre-incubation with NADPH, 10 min incubation): > 300 µM
- IC50 (CYP2E1 [15]; 0 min pre-incubation with NADPH, read-out: IC50 on CYP2E1, 0 min inactivation incubation (TDI)): 105 ± 57 µM
- IC50 (CYP2E1 [15]; IC50 on CYP2E1, 30 min inactivation incubation (TDI), 30 min pre-incubation with NADPH): 5.04 ± 1.91 µM
- IC50 shift at 10 min (CYP2E1 [15]; human, human liver microsomes, pH 7.4, probe chlorzoxazone (substrate cocktail set)): 20.9
- IC50 (CYP3A4 [16]; 0 min pre-incubation with NADPH, read-out: IC50 on CYP3A4, 0 min inactivation incubation (TDI)): 24.5 ± 51.3 µM
- IC50 (CYP3A4 [16]; IC50 on CYP3A4, 30 min inactivation incubation (TDI), 30 min pre-incubation with NADPH): 1.14 ± 2.29 µM
- IC50 shift at 10 min (CYP3A4 [16]; human, human liver microsomes, pH 7.4, probe testosterone (substrate cocktail set)): 21.4
- IC50 (CYP1A2 [17]; 0 min pre-incubation with NADPH, read-out: IC50 on CYP1A2, 0 min inactivation incubation (TDI)): > 300 µM
- IC50 (CYP1A2 [17]; IC50 on CYP1A2, 30 min inactivation incubation (TDI), 30 min pre-incubation with NADPH): > 300 µM
- IC50 (CYP1A2 [18]): > 300 µM
- IC50 (CYP2A6 [19]): > 300 µM
- IC50 (CYP2A6 [20]; 0 min pre-incubation with NADPH, read-out: IC50 on CYP2A6, 0 min inactivation incubation (TDI)): > 300 µM
- IC50 (CYP2A6 [20]; IC50 on CYP2A6, 30 min inactivation incubation (TDI), 30 min pre-incubation with NADPH): > 300 µM
SMILES: C[C@@H]1[C@H]2c3cc4c(cc3O[C@@]35OCOC3=CC(=O)[C@H](C[C@H]1C)[C@@H]25)OCO4 [Sauchinone]
